Assay results as given in patent publication US10059717B2, “Urea compounds containing 3,4-dihydropyrimido[4,5-D]pyrimidin-2(1H)-one skeleton as protein kinase inhibitors” (KOREA INSTITUTE OF SCIENCE AND TECHNOLOGY, priority 2016, dated 2018).

How the values were obtained:
[1] = test system: U937 (N-Ras WT); assay: Proliferation inhibitory activity, U937; format: cell-based; details: Homo sapiens, U-937; U937 (N-Ras WT) cell line; read-out: Proliferation inhibitory efficacy (GI50, μM) U937 (N-Ras WT)
Description: (§1) GI50 values were calculated by measuring the proliferation inhibitory efficacy of the compounds of the present invention on mt-NRAS (G12D) Ba/F3, U937 (wt-NRAS) and OCI-AML3 (mt-NRAS) cell lines.

[2] = test system: Ba/F3 (N-Ras G12D); assay: Proliferation inhibitory activity, Ba/F3; format: cell-based; details: Mus musculus, BaF3; Ba/F3 (N-Ras G12D) cell line; read-out: Proliferation inhibitory efficacy (GI50, μM) Ba/F3 (N-Ras G12D)
Description: as §1

[3] = target: T1, GCK (Homo sapiens, UniProt Q12851); assay: GCK kinase inhibitory activity; format: biochemical; details: read-out: Kinase inhibitory efficacy, GI50 GCK
T1 sequence (Q12851 1-820): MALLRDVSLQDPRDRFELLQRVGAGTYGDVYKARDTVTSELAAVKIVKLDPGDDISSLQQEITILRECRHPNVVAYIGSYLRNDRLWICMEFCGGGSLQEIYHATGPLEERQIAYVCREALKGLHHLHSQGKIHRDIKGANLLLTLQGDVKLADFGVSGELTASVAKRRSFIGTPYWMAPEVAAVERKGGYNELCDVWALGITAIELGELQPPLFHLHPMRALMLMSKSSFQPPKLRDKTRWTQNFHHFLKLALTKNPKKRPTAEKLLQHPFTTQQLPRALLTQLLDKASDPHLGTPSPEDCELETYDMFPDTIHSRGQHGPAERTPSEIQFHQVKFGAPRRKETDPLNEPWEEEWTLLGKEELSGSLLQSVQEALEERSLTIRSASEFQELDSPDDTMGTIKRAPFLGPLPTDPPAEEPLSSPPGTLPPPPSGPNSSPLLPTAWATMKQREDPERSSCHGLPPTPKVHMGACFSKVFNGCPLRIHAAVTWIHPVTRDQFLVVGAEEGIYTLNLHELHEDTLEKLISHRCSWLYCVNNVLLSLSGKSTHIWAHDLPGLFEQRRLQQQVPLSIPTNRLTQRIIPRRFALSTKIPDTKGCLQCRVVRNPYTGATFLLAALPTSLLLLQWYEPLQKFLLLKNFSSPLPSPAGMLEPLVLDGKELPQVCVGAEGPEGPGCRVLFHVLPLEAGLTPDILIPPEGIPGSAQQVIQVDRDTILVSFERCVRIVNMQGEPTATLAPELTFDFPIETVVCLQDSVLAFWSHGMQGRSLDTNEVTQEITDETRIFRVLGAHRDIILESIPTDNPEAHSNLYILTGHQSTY
Description: (§2) GI50 values were calculated by measuring the inhibitory efficacy of the compounds of the present invention against both GCK and ACK1 kinases.

[4] = target: ACK1 (Homo sapiens, UniProt Q07912); assay: ACK1 kinase inhibitory activity; format: biochemical; details: read-out: Kinase inhibitory efficacy, GI50 ACK1
Description: as §2

[5] = test system: OCI-AML3 (N-Ras Q61L); assay: Proliferation inhibitory activity, OCI-AML3; format: cell-based; details: Homo sapiens, OCI-AML-3; OCI-AML3 (N-Ras Q61L) cell line; read-out: Proliferation inhibitory efficacy (GI50, μM) OCI-AML3 (N-Ras Q61L)
Description: as §1
Accordingly, the compounds of the present invention are particularly effective as a therapeutic agent for acute myelogenous leukemia (AML).

ACK1, sequence (Q07912 whole entry): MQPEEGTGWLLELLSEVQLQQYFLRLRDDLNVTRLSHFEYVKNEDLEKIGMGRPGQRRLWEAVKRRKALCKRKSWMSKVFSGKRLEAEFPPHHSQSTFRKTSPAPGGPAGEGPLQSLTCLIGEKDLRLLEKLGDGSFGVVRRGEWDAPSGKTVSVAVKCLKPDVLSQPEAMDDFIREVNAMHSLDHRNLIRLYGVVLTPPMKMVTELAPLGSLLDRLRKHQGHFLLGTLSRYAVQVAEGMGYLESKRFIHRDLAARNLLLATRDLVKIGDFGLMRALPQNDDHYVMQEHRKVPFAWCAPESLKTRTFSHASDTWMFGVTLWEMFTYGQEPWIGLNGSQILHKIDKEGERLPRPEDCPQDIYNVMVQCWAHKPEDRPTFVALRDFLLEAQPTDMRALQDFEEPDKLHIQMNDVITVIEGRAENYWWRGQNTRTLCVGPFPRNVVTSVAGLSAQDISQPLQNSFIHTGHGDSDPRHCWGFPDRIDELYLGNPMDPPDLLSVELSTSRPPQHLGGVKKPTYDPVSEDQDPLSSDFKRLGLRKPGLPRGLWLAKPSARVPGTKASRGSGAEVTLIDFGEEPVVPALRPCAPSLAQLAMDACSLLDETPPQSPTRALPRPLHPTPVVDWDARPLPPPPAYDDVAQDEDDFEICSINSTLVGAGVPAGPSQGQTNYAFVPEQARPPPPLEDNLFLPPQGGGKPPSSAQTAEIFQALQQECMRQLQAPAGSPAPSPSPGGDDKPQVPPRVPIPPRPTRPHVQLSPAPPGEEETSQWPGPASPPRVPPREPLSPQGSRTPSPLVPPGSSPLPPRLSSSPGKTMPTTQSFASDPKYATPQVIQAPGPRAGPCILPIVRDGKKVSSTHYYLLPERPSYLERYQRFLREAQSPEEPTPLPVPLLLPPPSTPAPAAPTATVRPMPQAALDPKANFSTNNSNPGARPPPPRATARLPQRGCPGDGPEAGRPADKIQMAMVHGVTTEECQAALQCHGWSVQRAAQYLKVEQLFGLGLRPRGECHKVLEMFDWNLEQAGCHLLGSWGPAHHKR

| Compound | GI50 [1] [µM] | GI50 [2] [µM] | GI50 [3] [µM] | GI50 [4] [µM] | GI50 [5] [µM] |
| --- | --- | --- | --- | --- | --- |
| COc1ccccc1NC(=O)Nc1ccc(C)c(N2Cc3cnc(Nc4ccc(C)nc4)nc3N(C)C2=O)c1 [Compound No. 1, 1-(2-methoxyphenyl)-3-(4-methyl-3-(1-methyl-7-((6-methylpyridin-3-yl)amino)-2-oxo-1,4-dihydropyrimido[4,5-d]pyrimidin-3(2H)-yl)phenyl)urea] | ≥ 5 | < 0.5 | 0.03 to 0.1 | < 0.03 | < 0.5 |
| Cc1ccc(Nc2ncc3c(n2)N(C)C(=O)N(c2cc(NC(=O)Nc4ccccc4)ccc2C)C3)cn1 [Compound No. 2, 1-(4-methyl-3-(1-methyl-7-((6-methylpyridin-3-yl)amino)-2-oxo-1,4-dihydropyrimido[4,5-d]pyrimidin-3(2H)-yl)phenyl)-3-phenylurea] | ≥ 5 | 0.5 to 3 | 0.1 to 0.3 | < 0.03 | 0.5 to 3 |
| Cc1ccc(Nc2ncc3c(n2)N(C)C(=O)N(c2cc(NC(=O)Nc4ccccc4OC(F)(F)F)ccc2C)C3)cn1 [Compound No. 3, 1-(4-methyl-3-(1-methyl-7-((6-methylpyridin-3-yl)amino)-2-oxo-1,4-dihydropyrimido[4,5-d]pyrimidin-3(2H)-yl)phenyl)-3-(2-(trifluoromethoxy)phenyl)urea] | ≥ 5 | 3 to 5 | ≥ 0.3 | < 0.03 | 0.5 to 3 |
| Cc1ccc(Nc2ncc3c(n2)N(C)C(=O)N(c2cc(NC(=O)Nc4ccccc4C(F)(F)F)ccc2C)C3)cn1 [Compound No. 4, 1-(4-methyl-3-(1-methyl-7-((6-methylpyridin-3-yl)amino)-2-oxo-1,4-dihydropyrimido[4,5-d]pyrimidin-3(2H)-yl)phenyl)-3-(2-(trifluoromethyl)phenyl)urea] | ≥ 5 | 0.5 to 3 | ≥ 0.3 | < 0.03 | < 0.5 |
| Cc1ccc(Nc2ncc3c(n2)N(C)C(=O)N(c2cc(NC(=O)Nc4ccccc4C)ccc2C)C3)cn1 [Compound No. 5, 1-(4-methyl-3-(1-methyl-7-((6-methylpyridin-3-yl)amino)-2-oxo-1,4-dihydropyrimido[4,5-d]pyrimidin-3(2H)-yl)phenyl)-3-(o-tolyl)urea] | ≥ 5 | 0.5 to 3 | 0.1 to 0.3 | < 0.03 | 0.5 to 3 |
| Cc1ccc(Nc2ncc3c(n2)N(C)C(=O)N(c2cc(NC(=O)Nc4cccc(Cl)c4Cl)ccc2C)C3)cn1 [Compound No. 6, 1-(2,3-dichlorophenyl)-3-(4-methyl-3-(1-methyl-7-((6-methylpyridin-3-yl)amino)-2-oxo-1,4-dihydropyrimido[4,5-d]pyrimidin-3(2H)-yl)phenyl)urea] | ≥ 5 | 0.5 to 3 | 0.1 to 0.3 | < 0.03 | < 0.5 |
| Cc1ccc(Nc2ncc3c(n2)N(C)C(=O)N(c2cc(NC(=O)Nc4cccc(C(F)(F)F)c4)ccc2C)C3)cn1 [Compound No. 7, 1-(4-methyl-3-(1-methyl-7-((6-methylpyridin-3-yl)amino)-2-oxo-1,4-dihydropyrimido[4,5-d]pyrimidin-3(2H)-yl)phenyl)-3-(3-(trifluoromethyl)phenyl)urea] | ≥ 5 | < 0.5 | 0.1 to 0.3 | < 0.03 | 0.5 to 3 |
| COc1cccc(NC(=O)Nc2ccc(C)c(N3Cc4cnc(Nc5ccc(C)nc5)nc4N(C)C3=O)c2)c1 [Compound No. 8, 1-(3-methoxyphenyl)-3-(4-methyl-3-(1-methyl-7-((6-methylpyridin-3-yl)amino)-2-oxo-1,4-dihydropyrimido[4,5-d]pyrimidin-3(2H)-yl)phenyl)urea] | ≥ 5 | < 0.5 | 0.03 to 0.1 | < 0.03 | 0.5 to 3 |
| Cc1ccc(Nc2ncc3c(n2)N(C)C(=O)N(c2cc(NC(=O)Nc4ccc(Cl)c(C(F)(F)F)c4)ccc2C)C3)cn1 [Compound No. 9, 1-(4-chloro-3-(trifluoromethyl)phenyl)-3-(4-methyl-3-(1-methyl-7-((6-methylpyridin-3-yl)amino)-2-oxo-1,4-dihydropyrimido[4,5-d]pyrimidin-3(2H)-yl)phenyl)urea] | ≥ 5 | 0.5 to 3 | 0.1 to 0.3 | 0.03 to 0.1 | < 0.5 |
| COc1ccc(NC(=O)Nc2ccc(C)c(N3Cc4cnc(Nc5ccc(C)nc5)nc4N(C)C3=O)c2)cc1 [Compound No. 10, 1-(4-methoxyphenyl)-3-(4-methyl-3-(1-methyl-7-((6-methylpyridin-3-yl)amino)-2-oxo-1,4-dihydropyrimido[4,5-d]pyrimidin-3(2H)-yl)phenyl)urea] | ≥ 5 | < 0.5 | 0.03 to 0.1 | 0.03 to 0.1 | < 0.5 |
| CCN1CCN(c2ccc(Nc3ncc4c(n3)N(C)C(=O)N(c3cc(NC(=O)Nc5ccccc5OC)ccc3C)C4)cc2)CC1 [Compound No. 11, 1-(3-(7-((4-(4-ethylpiperazin-1-yl)phenyl)amino)-1-methyl-2-oxo-1,4-dihydropyrimido[4,5-d]pyrimidin-3(2H)-yl)-4-methylphenyl)-3-(2-methoxyphenyl)urea] | 0.5 to 3 | < 0.5 | < 0.03 | < 0.03 | < 0.5 |
| COc1ccccc1NC(=O)Nc1ccc(C)c(N2Cc3cnc(Nc4cnn(C)c4)nc3N(C)C2=O)c1 [Compound No. 12, 1-(2-methoxyphenyl)-3-(4-methyl-3-(1-methyl-7-((1-methy-1H-pyrazol-4-yl)amino)-2-oxo-1,4-dihydropyrimido[4,5-d]pyrimidin-3(2H)-yl)phenyl)urea] | ≥ 5 | < 0.5 | < 0.03 | < 0.03 | < 0.5 |
| COc1ccccc1NC(=O)Nc1ccc(C)c(N2Cc3cnc(Nc4ccc(N5CCN(C(C)=O)CC5)nc4)nc3N(C)C2=O)c1 [Compound No. 13, 1-(3-(7-((6-(4-acetylpiperazin-1-yl)pyridin-3-yl)amino)-1-methyl-2-oxo-1,4-dihydropyrimido[4,5-d]pyrimidin-3(2H)-yl)-4-methylphenyl)-3-(2-methoxyphenyl)urea] | ≥ 5 | < 0.5 | < 0.03 | < 0.03 | < 0.5 |
| CNC(=O)c1ccc(Nc2ncc3c(n2)N(C)C(=O)N(c2cc(NC(=O)Nc4ccccc4OC)ccc2C)C3)cn1 [Compound No. 15] | ≥ 5 | < 0.5 | 0.1 to 0.3 | < 0.03 | < 0.5 |
| COc1ccccc1NC(=O)Nc1ccc(C)c(N2Cc3cnc(Nc4ccc(C(=O)NC5CC5)nc4)nc3N(C)C2=O)c1 [Compound No. 16, N-cyclopropyl-5-((6-(5-(3-(2-methoxyphenyl)ureido)-2-methylphenyl)-8-methyl-7-oxo-5,6,7,8-tetrahydropyrimido[4,5-d]pyrimidin-2-yl)amino)picolinamide] | ≥ 5 | < 0.5 | 0.1 to 0.3 | < 0.03 | < 0.5 |
| CCN1CCN(c2ccc(Nc3ncc4c(n3)N(C)C(=O)N(c3cc(NC(=O)Nc5ccccc5OC)ccc3C)C4)cn2)CC1 [Compound No. 17, 1-(3-(7-((6-(4-ethylpiperazin-1-yl)pyridin-3-yl)amino)-1-methyl-2-oxo-1,4-dihydropyrimido[4,5-d]pyrimidin-3(2H)-yl)-4-methylphenyl)-3-(2-methoxyphenyl)urea] | 0.5 to 3 | < 0.5 | < 0.03 | < 0.03 | < 0.5 |
| COc1ccccc1NC(=O)Nc1ccc(C)c(N2Cc3cnc(Nc4ccc(N5CCC(C(N)=O)CC5)nc4)nc3N(C)C2=O)c1 [Compound No. 18, 1-(5-((6-(5-(3-(2-methoxyphenyl)ureido)-2-methylphenyl)-8-methyl-7-oxo-5,6,7,8-tetrahydropyrimido[4,5-d]pyrimidin-2-yl)amino)pyridin-2-yl)piperidin-4-carboxamide] | ≥ 5 | < 0.5 | < 0.03 | 0.03 to 0.1 | < 0.5 |
